According to patent publication US20060046968A1, “Prodrug substituted benzoxazoles as estrogenic agents” (priority 2004, published 2006):
Read-outs that look alike come from different tables or passages of the source.

Columns and labels:
[1] = test system: ovariectomized Sprague-Dawley rats; experiment: Bone mineral density in the ovariectomized rat (pQCT, proximal tibia); format: in vivo; details: 17β-estradiol 2 μg/rat s.c.; 5 weeks
human ERβ = molecular target: T1, human ERβ (Homo sapiens, UniProt Q92731); experiment: ER radioligand binding competition, ERβ
T1 construct: Flag (C); made in house; host or cells: E. coli BL21 (DE3), clarified lysate
T1 sequence (Q92731 214-530): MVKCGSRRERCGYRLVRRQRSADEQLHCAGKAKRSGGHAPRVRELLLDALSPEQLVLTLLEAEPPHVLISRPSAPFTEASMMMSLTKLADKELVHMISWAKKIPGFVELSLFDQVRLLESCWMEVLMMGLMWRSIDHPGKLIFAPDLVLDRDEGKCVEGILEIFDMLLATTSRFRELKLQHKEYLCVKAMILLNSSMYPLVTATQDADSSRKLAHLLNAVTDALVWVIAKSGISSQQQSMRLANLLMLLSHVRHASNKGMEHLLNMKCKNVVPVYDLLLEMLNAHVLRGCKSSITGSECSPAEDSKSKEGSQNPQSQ

human ERα = molecular target: T2, human ERα (Homo sapiens, UniProt P03372); experiment: ER radioligand binding competition, ERα
T2 construct: These templates contained amino acids M250-V595 of human ERα; His (N); Flag (C); made in house; host or cells: E. coli BL21 (DE3), clarified lysate
T2 sequence (P03372 250-595): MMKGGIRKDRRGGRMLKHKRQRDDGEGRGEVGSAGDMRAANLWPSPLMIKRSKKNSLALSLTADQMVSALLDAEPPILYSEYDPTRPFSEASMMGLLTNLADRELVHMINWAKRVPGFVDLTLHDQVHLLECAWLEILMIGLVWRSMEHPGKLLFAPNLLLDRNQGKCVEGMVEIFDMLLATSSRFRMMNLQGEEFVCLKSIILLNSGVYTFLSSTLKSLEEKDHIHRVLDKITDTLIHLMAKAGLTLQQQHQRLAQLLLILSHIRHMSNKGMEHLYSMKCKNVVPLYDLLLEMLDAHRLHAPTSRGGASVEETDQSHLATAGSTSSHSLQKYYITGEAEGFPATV

Lewis rats = experiment: Lewis rat adjuvant-induced arthritis, treatment protocol: joint score (maximal score per day 12); format: in vivo; details: s.c. daily, begun Day 8 after adjuvant
[2] = test system: Sexually immature 129 SvE mice; experiment: Mouse uterotrophic test procedure (Procedure 2); format: in vivo; details: compound 50 mg/kg s.c., days 22-25
[3] = competition with [3H]-17β-estradiol, read-out: ER-α IC50

Structure (SMILES): C[C@]12CC[C@@H]3c4ccc(O)cc4CC[C@H]3[C@@H]1CC[C@@H]2O [17β-estradiol, reference compound]
- Total Bone Mineral Density (mean ± SEM) [1]: 639.49 ± 14.47 mg/mL
- Trabecular Bone Mineral Density (mean ± SEM) [1]: 453.28 ± 24.93 mg/mL

Structure (SMILES): Oc1ccc(O)c(-c2nc3cc(O)ccc3o2)c1 [Example 1, 2-(5-HYDROXY-1,3-BENZOXAZOL-2-YL) BENZENE-1,4-DIOL]
- IC50 (human ERβ): 140 nM
- IC50 (human ERα; [3]): 720 nM

Structure (SMILES): Oc1ccc2nc(-c3ccc(O)c(F)c3)oc2c1 [Example 6, 2-(3-FLUORO-4-HYDROXYPHENYL)-1,3-BENZOXAZOL-6-OL]
- IC50 (human ERα): 843 nM

Structure (SMILES): Oc1ccc(O)c(-c2nc3ccc(O)cc3o2)c1 [Example 8, 2-(6-HYDROXY-1,3-BENZOXAZOL-2-YL)BENZENE-1,4-DIOL]
- IC50 (human ERβ): 181 nM
- IC50 (human ERα; [3]): 2350 nM

Structure (SMILES): Oc1ccc2nc(-c3cccc(O)c3O)oc2c1 [Example 9, 3-(6-HYDROXY-1,3-BENZOXAZOL-2-YL)BENZENE-1,2-DIOL]
- IC50 (human ERα): 1500 nM

Structure (SMILES): Oc1cc(Br)c2oc(-c3ccc(O)c(F)c3F)nc2c1 [Example 23, 7-BROMO-2-(2,3-DIFLUORO-4-HYDROXYPHENYL)-1,3-BENZOXAZOL-5-OL]
- IC50 (human ERβ): 3 nM
- IC50 (human ERα; [3]): 113 nM

Structure (SMILES): C=Cc1cc(O)cc2nc(-c3ccc(O)cc3)oc12 [Example 27, 2-(4-HYDROXYPHENYL)-7-VINYL-1,3-BENZOXAZOL-5-OL]
- Joint inflammation score (Lewis rats; table Day 1): 11.33
- Joint inflammation score (Lewis rats; table Day 2): 11.15
- Joint inflammation score (Lewis rats; table Day 3): 11.33
- Joint inflammation score (Lewis rats; table Day 4): 9.83
- Joint inflammation score (Lewis rats; table Day 5): 8.83
- Joint inflammation score (Lewis rats; table Day 6): 7.83
- Joint inflammation score (Lewis rats; table Day 7): 6.16
- Joint inflammation score (Lewis rats; table Day 8): 5.00
- Joint inflammation score (Lewis rats; table Day 9): 4.33
- Joint inflammation score (Lewis rats; table Day 10): 2.66
- Joint inflammation score (Lewis rats; table Day 11): 1.83
- Joint inflammation score (Lewis rats; table Day 12): 1.83
- Joint inflammation score (Lewis rats; table Day 13): 2.66
- Joint inflammation score (Lewis rats; table Day 14): 2.66
- Joint inflammation score (Lewis rats; table Day 15): 2.00
- Joint inflammation score (Lewis rats; table Day 16): 2.00
- Joint inflammation score (Lewis rats; table Day 17): 1.50
- IC50 (human ERα): 409 nM

Structure (SMILES): Oc1ccc(-c2nc3cc(O)cc(C(Br)CBr)c3o2)cc1 (stereo not drawn) [Example 30, 7-(1,2-DIBROMOETHYL)-2-(4-HYDROXYPHENYL)-1,3-BENZOXAZOL-5-OL]
- IC50 (human ERβ): 134 nM
- IC50 (human ERα; [3]): 3080 nM

Structure (SMILES): C=C(Br)c1cc(O)cc2nc(-c3ccc(O)cc3)oc12 [Example 31, 7-(1-BROMOVINYL)-2-(4-HYDROXYPHENYL)-1,3-BENZOXAZOL-5-OL]
- IC50 (human ERβ): 31 nM
- IC50 (human ERα; [3]): 352 nM

Structure (SMILES): C=C(Br)c1cc(O)cc2nc(-c3ccc(O)cc3F)oc12 [Example 32, 7-(1-BROMOVINYL)-2-(2-FLUORO-4-HYDROXYPHENYL)-1,3-BENZOXAZOL-5-OL]
- Joint inflammation score (Lewis rats; table Day 1): 11.33
- Joint inflammation score (Lewis rats; table Day 2): 10.83
- Joint inflammation score (Lewis rats; table Day 3): 9.33
- Joint inflammation score (Lewis rats; table Day 4): 8.00
- Joint inflammation score (Lewis rats; table Day 5): 5.83
- Joint inflammation score (Lewis rats; table Day 6): 3.33
- Joint inflammation score (Lewis rats; table Day 7): 3.00
- Joint inflammation score (Lewis rats; table Day 8): 2.50
- Joint inflammation score (Lewis rats; table Day 9): 2.50
- Joint inflammation score (Lewis rats; table Day 10): 2.50
- Joint inflammation score (Lewis rats; table Day 11): 2.50
- Joint inflammation score (Lewis rats; table Day 12): 2.50
- Joint inflammation score (Lewis rats; table Day 13): 2.50
- Joint inflammation score (Lewis rats; table Day 14): 2.50
- Joint inflammation score (Lewis rats; table Day 15): 2.00
- Joint inflammation score (Lewis rats; table Day 16): 1.33
- Joint inflammation score (Lewis rats; table Day 17): 1.00
- IC50 (human ERβ): 16 nM
- IC50 (human ERα; [3]): 196 nM

Structure (SMILES): C=C(Br)c1cc(O)cc2nc(-c3ccc(O)c(F)c3F)oc12 [Example 33, 7-(1-BROMOVINYL)-2-(2,3-DIFLUORO-4-HYDROXYPHENYL)-1,3-BENZOXAZOL-5-OL]
- IC50 (human ERβ): 31 nM
- IC50 (human ERα; [3]): 352 nM

Structure (SMILES): NC(=O)c1cc(O)cc2nc(-c3ccc(O)cc3)oc12 [Example 42, 5-HYDROXY-2-(4-HYDROXYPHENYL)-1,3-BENZOXAZOL-7-CARBOXAMIDE]
- mean uterine weight ± SEM [2]: 9.5 ± 0.6 mg

Structure (SMILES): CCc1cc(O)ccc1-c1nc2cc(O)cc(CC)c2o1 [Example 45, 7-ETHYL-2-(2-ETHYL-4-HYDROXYPHENYL)-1,3-BENZOXAZOL-5-OL]
- IC50 (human ERβ): 84 nM
- IC50 (human ERα; [3]): 655 nM

Structure (SMILES): CC(C)(O)c1cc(O)cc2nc(-c3ccc(O)cc3)oc12 [Example 50]
- IC50 (human ERβ): 399 nM
- IC50 (human ERα; [3]): > 5000 nM

Structure (SMILES): C=C(C)c1cc(O)cc2nc(-c3ccc(O)cc3)oc12 [Example 51, 2-(4-HYDROXYPHENYL)-7-ISOPROPENYL-1,3-BENZOXAZOL-5-OL]
- IC50 (human ERβ): 142 nM
- IC50 (human ERα; [3]): 775 nM

Structure (SMILES): COc1cc(O)c(Br)c2nc(-c3ccc(O)cc3)oc12 [Example 59, 4-BROMO-2-(4-HYDROXYPHENYL)-7-METHOXY-1,3-BENZOXAZOL-5-OL]
- IC50 (human ERβ): 52 nM
- IC50 (human ERα; [3]): 2670 nM

Structure (SMILES): COc1c(Br)c(O)c(Br)c2nc(-c3ccc(O)cc3)oc12 [Example 60, 4,6-DIBROMO-2-(4-HYDROXYPHENYL)-7-METHOXY-1,3-BENZOXAZOL-5-OL]
- IC50 (human ERβ): 64 nM
- IC50 (human ERα; [3]): 559 nM

Structure (SMILES): Oc1cc(Br)c2oc(-c3cc(F)c(O)c(F)c3)nc2c1 [Example 61, 7-BROMO-2-(3,5-DIFLUORO-4-HYDROXYPHENYL)-1,3-BENZOXAZOL-5-OL]
- IC50 (human ERβ): 93 nM
- IC50 (human ERα; [3]): 1180 nM
